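These data come from cells grown in 96-well plates and exposed to compound for 48 hours at five concentrations. GI50 = concentration required for 50% inhibition of growth.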 Active and inactive are the calls of the source. Cut-off read from the data, not from the text of the source: active = GI50 up to about 1.1 µM and inactive = higher.
Assays:
Assay in all cases: NCI-60 cell line screen, 48 h
A498 = test system: A498
SK-MEL-2 = test system: SK-MEL-2
SK-MEL-28 = test system: SK-MEL-28
UO-31 = test system: UO-31
HOP-92 = test system: HOP-92
UACC-257 = test system: UACC-257
SK-MEL-5 = test system: SK-MEL-5
NCI-H522 = test system: NCI-H522
SNB-75 = test system: SNB-75
Hs-578T = test system: Hs-578T
HT-29 = test system: HT-29
MDA-N = test system: MDA-N
SW-620 = test system: SW-620
BT-549 = test system: BT-549
MOLT-4 = test system: MOLT-4
NCI-H226 = test system: NCI-H226
SNB-19 = test system: SNB-19
CCRF-CEM = test system: CCRF-CEM
ACHN = test system: ACHN
HL-60 = test system: HL-60
IGROV-1 = test system: IGROV-1
T47D = test system: T47D
COLO 205 = test system: COLO 205
DU-145 = test system: DU-145
SN12C = test system: SN12C
MDA-MB-231 = test system: MDA-MB-231
PC-3 = test system: PC-3
KM12 = test system: KM12
NCI-H460 = test system: NCI-H460
786-0 = test system: 786-0
HCT-15 = test system: HCT-15
MDA-MB-435 = test system: MDA-MB-435
OVCAR-5 = test system: OVCAR-5
HCT-116 = test system: HCT-116
U-251 = test system: U-251
HOP-62 = test system: HOP-62
OVCAR-4 = test system: OVCAR-4
Malme-3M = test system: Malme-3M
SK-OV-3 = test system: SK-OV-3
NCI/ADR-RES = test system: NCI/ADR-RES
EKVX = test system: EKVX
SF-268 = test system: SF-268
M14 = test system: M14
OVCAR-8 = test system: OVCAR-8
CAKI-1 = test system: CAKI-1
K562 = test system: K562
SF-295 = test system: SF-295
OVCAR-3 = test system: OVCAR-3
A549 = test system: A549
RXF 393 = test system: RXF 393
NCI-H23 = test system: NCI-H23
SR = test system: SR
MCF7 = test system: MCF7
TK-10 = test system: TK-10
RPMI-8226 = test system: RPMI-8226
SF-539 = test system: SF-539
LOX IMVI = test system: LOX IMVI
UACC-62 = test system: UACC-62

In the case of `O=C(O)C(Cc1ccc(O)c([N+](=O)[O-])c1)N1C(=O)c2ccccc2C1=O` (stereo not drawn), the GI50 (A498) is reported as > 100 µM (inactive), the GI50 (SK-MEL-2) is reported as > 100 µM (inactive) and the GI50 (SK-MEL-28) is reported as > 100 µM (inactive). For the same compound, the GI50 (UO-31) was > 100 µM (inactive), the GI50 (HOP-92) was > 100 µM (inactive) and the GI50 (UACC-257) was > 100 µM (inactive). For the same compound, the GI50 (SK-MEL-5) was > 100 µM (inactive), the GI50 (NCI-H522) was > 100 µM (inactive) and the GI50 (SNB-75) was > 100 µM (inactive). For the same compound, the GI50 (Hs-578T) was > 100 µM (inactive), the GI50 (HT-29) was > 100 µM (inactive) and the GI50 (MDA-N) was > 100 µM (inactive). The GI50 (SW-620) was > 100 µM (inactive), the GI50 (BT-549) was > 100 µM (inactive) and the GI50 (MOLT-4) was > 100 µM (inactive). For the same compound, the GI50 (NCI-H226) was > 100 µM (inactive), the GI50 (SNB-19) was > 100 µM (inactive) and the GI50 (CCRF-CEM) was > 100 µM (inactive). For the same compound, the GI50 (ACHN) was > 100 µM (inactive), the GI50 (HL-60) was 18.6 µM (inactive) and the GI50 (IGROV-1) was > 100 µM (inactive). The GI50 (T47D) was > 100 µM (inactive), the GI50 (COLO 205) was > 100 µM (inactive) and the GI50 (DU-145) was > 100 µM (inactive). The GI50 (SN12C) was > 100 µM (inactive), the GI50 (MDA-MB-231) was > 100 µM (inactive) and the GI50 (PC-3) was > 100 µM (inactive). The GI50 (KM12) was > 100 µM (inactive), the GI50 (NCI-H460) was > 100 µM (inactive) and the GI50 (786-0) was > 100 µM (inactive). The GI50 (HCT-15) was > 100 µM, the GI50 (MDA-MB-435) was > 100 µM (inactive) and the GI50 (OVCAR-5) was > 100 µM (inactive). For the same compound, the GI50 (HCT-116) was > 100 µM (inactive), the GI50 (U-251) was > 100 µM (inactive) and the GI50 (HOP-62) was > 100 µM (inactive). The GI50 (OVCAR-4) was > 100 µM (inactive), the GI50 (Malme-3M) was > 100 µM (inactive) and the GI50 (SK-OV-3) was > 100 µM (inactive). For the same compound, the GI50 (NCI/ADR-RES) was > 100 µM (inactive), the GI50 (EKVX) was > 100 µM (inactive) and the GI50 (SF-268) was > 100 µM (inactive). For the same compound, the GI50 (M14) was > 100 µM (inactive), the GI50 (OVCAR-8) was > 100 µM (inactive) and the GI50 (CAKI-1) was > 100 µM (inactive). For the same compound, the GI50 (K562) was > 100 µM (inactive), the GI50 (SF-295) was > 100 µM (inactive) and the GI50 (OVCAR-3) was > 100 µM (inactive). The GI50 (A549) was > 100 µM (inactive), the GI50 (RXF 393) was > 100 µM (inactive) and the GI50 (NCI-H23) was > 100 µM (inactive). For the same compound, the GI50 (SR) was > 100 µM (inactive), the GI50 (MCF7) was > 100 µM (inactive) and the GI50 (TK-10) was > 100 µM (inactive). The GI50 (RPMI-8226) was > 100 µM (inactive), the GI50 (SF-539) was > 100 µM (inactive) and the GI50 (LOX IMVI) was > 100 µM (inactive). The GI50 (UACC-62) was > 100 µM (inactive).
With `CN(C)CC(C)(C)CN1c2ccccc2Sc2ccccc21` the GI50 (A498) was 13.6 µM (inactive), the GI50 (SK-MEL-2) was 15.4 µM (inactive) and the GI50 (SK-MEL-28) was 13.5 µM (inactive). For the same compound, the GI50 (HOP-92) was 11.8 µM (inactive), the GI50 (UACC-257) was 12 µM (inactive) and the GI50 (SK-MEL-5) was 16 µM (inactive). The GI50 (NCI-H522) was 13.2 µM (inactive), the GI50 (SNB-75) was 4.28 µM (inactive) and the GI50 (Hs-578T) was 14 µM (inactive). For the same compound, the GI50 (HT-29) was 10.8 µM (inactive), the GI50 (MDA-N) was 15 µM (inactive) and the GI50 (SW-620) was 15 µM (inactive). For the same compound, the GI50 (BT-549) was 14 µM (inactive), the GI50 (MOLT-4) was 6.55 µM (inactive) and the GI50 (NCI-H226) was 18 µM (inactive). For the same compound, the GI50 (SNB-19) was 15.6 µM (inactive), the GI50 (ACHN) was 15.1 µM (inactive) and the GI50 (IGROV-1) was 14.9 µM (inactive). For the same compound, the GI50 (T47D) was 14.2 µM (inactive), the GI50 (COLO 205) was 12.2 µM (inactive) and the GI50 (DU-145) was 12.4 µM (inactive). The GI50 (SN12C) was 12.9 µM (inactive), the GI50 (MDA-MB-231) was 12 µM (inactive) and the GI50 (PC-3) was 12.9 µM (inactive). The GI50 (KM12) was 12.8 µM (inactive), the GI50 (NCI-H460) was 13.5 µM (inactive) and the GI50 (786-0) was 12.9 µM (inactive). For the same compound, the GI50 (HCT-15) was > 100 µM, the GI50 (MDA-MB-435) was 13.4 µM (inactive) and the GI50 (OVCAR-5) was 14.8 µM (inactive). The GI50 (HCT-116) was 13.8 µM (inactive), the GI50 (U-251) was 13.6 µM (inactive) and the GI50 (HOP-62) was 12.9 µM (inactive). The GI50 (OVCAR-4) was 12.9 µM (inactive), the GI50 (Malme-3M) was 14.8 µM (inactive) and the GI50 (SK-OV-3) was 13.2 µM (inactive). The GI50 (NCI/ADR-RES) was 12.7 µM (inactive), the GI50 (EKVX) was 15.4 µM (inactive) and the GI50 (SF-268) was 14.5 µM (inactive). For the same compound, the GI50 (M14) was 10.4 µM (inactive), the GI50 (OVCAR-8) was 15.3 µM (inactive) and the GI50 (CAKI-1) was 12.1 µM (inactive). For the same compound, the GI50 (K562) was 8.55 µM (inactive), the GI50 (SF-295) was 13.8 µM (inactive) and the GI50 (OVCAR-3) was 11.9 µM (inactive). The GI50 (A549) was 15.5 µM (inactive), the GI50 (RXF 393) was 2.12 µM (inactive) and the GI50 (NCI-H23) was 16.4 µM (inactive). The GI50 (SR) was 10.1 µM (inactive), the GI50 (MCF7) was 16.4 µM (inactive) and the GI50 (TK-10) was 13.9 µM (inactive). The GI50 (RPMI-8226) was 16.4 µM (inactive), the GI50 (SF-539) was 19.7 µM (inactive) and the GI50 (LOX IMVI) was 13.6 µM (inactive). For the same compound, the GI50 (UACC-62) was 14.9 µM (inactive).

Reference: ChEMBL document CHEMBL1201862, “PubChem BioAssay data set” (2004)
